Data published in publication PMC8596843, “Platinum Cyclooctadiene Complexes with Activity against Gram‐positive Bacteria” (Chemmedchem, 2021).
Like-named read-outs stand apart in the source and are kept apart here.

Experiments:
[1] = system: E. faecium ATCC 51559 MDR, VRE; experiment: MIC in the presence of human serum (serum reversal); type: cell-based, Enterococcus faecium; conditions: 10% serum
From the text: (§1) To obtain some initial insight into the apparent disparity between in vitro and in vivo results, we repeated the MIC experiments against four selected Gram‐positive strains in the presence of 10 % or 50 % human serum (Table S3). Pt1 and Pt2 maintained some antibacterial activity against B. subtilis in the presence of 10 % serum, but a complete loss of activity was observed against MRSA and GISA (50 % serum), and VRE (10 % serum). […] Systemic administration is therefore unlikely to be a suitable administration route for this class of compounds unless an alternative formulation that can prevent serum binding (e. g. by lipid or nanoparticle encapsulation) can be found. […] Further in vivo studies should therefore focus on more suitable disease models. […]
(§2) Antibacterial minimum inhibitory concentration (MIC) assay
(§3) concentration. (in-house screening)
(§4) Bacto Laboratories 212322) at 37 °C overnight.
(§5) The resultant mid-log phase cultures were diluted
(§6) Gram-negative and Gram-positive bacteria, respectively.
(§7) final concentration range of 0.8 – 100 µM.
(§8) inhibitors as positive control. […]

[2] = system: Candida albicans ATCC 90028; experiment: Antifungal MIC (CO-ADD screening); type: cell-based
Description: (§9) InChIKey: PHIWIZAHOBWKFJ-HPCBIOCFSA-N
(§10) Health Central Pathology. Candida albicans (ATCC 90028, NCCLS 11), Cryptococcus neoformans
as §2, §3, §4

[3] = system: Cryptococcus neoformans H99 ATCC 208821; experiment: Antifungal MIC (CO-ADD screening); type: cell-based
Description: as §9, §10, §2, §3, §4

[4] = system: B. subtilis ATCC 6051 type strain; experiment: MIC in the presence of human serum (serum reversal); type: cell-based, Bacillus subtilis; conditions: 10% serum
From the text: as §1, §2, §3, §4, §5, §6, §7, §8

[5] = system: Staphylococcus aureus ATCC 43300 (MRSA); experiment: microbe, parasite or virus in culture; type: cell-based; conditions: for MIC Sa: CO‐ADD screening
Description: (§11) All compounds submitted to CO‐ADD are initially screened against five bacterial strains (Staphylococcus aureus (MRSA), E. coli, Klebsiella pneumoniae, Pseudomonas aeruginosa, Acinetobacter baumannii) and two fungal strains (Candida albicans, Cryptococcus neoformans) at a single concentration (32 μg/mL or 20 μM) performed as a high‐throughput primary screening.[[11], [17a]] Any compounds that show significant growth inhibition against any of the tested strains at this step are then evaluated in a dose‐response assay against these same strains. […]
(§12) Smiles: C1C=CCCC(=CC1)C1=CCCC=CCC1.C[Pt]C.C[Pt]C […]
(§13) ATCC strains were sourced from the American Type Culture Collection and NRS strains from NARSA (Network on Antimicrobial Resistance in Staphylococcus aureus) via BEI Resources (www.beiresources.org), with clinical MSSA and MRSA isolates from Prof Graeme Nimmo, Queensland […]
(§14) Health Central Pathology. […]
as §2
(§15) Compound Assay Plate Preparation: Compounds were dissolved in DMSO at 10mM (CO-ADD screening) or 4 mM (follow up screening) and were plated in a 2-fold dose response from 20 to 0.156 µM or 200 to 0.006 µM respectively, with a maximum of 0.5% or 1% DMSO, final in the assay […]
(§16) plated in a 2-fold dose response from 200 to 0.006 µM, with a maximum of 1 % DMSO, final in the assay concentration. (in-house screening)
(§17) For all the bacterial assays, each strain was cultured in Cation-adjusted Mueller Hinton broth (CAMHB; Bacto Laboratories 212322) at 37 °C overnight. A sample of each culture was then diluted 40-fold in fresh CAMHB and incubated at 37 °C for 1.5–3 h. The resultant mid-log phase cultures were diluted with CAMHB (CFU mL−1 measured by OD600), then added to each well of the compound-containing plates (384-well non-binding surface (NBS) plates; Corning CLS3640), giving a cell density of 5 × 10^5 CFU mL−1 and a total volume of 50 μL. Plates were covered and incubated at 37 °C for 18 h without shaking. Inhibition of bacterial growth was determined measuring absorbance at 600 nm (OD600), using media only as negative control and bacteria without inhibitors as positive control. MIC values were determined as the lowest concentration at which the growth was inhibited at ≥80%. Colistin sulfate (Sigma C4461) and vancomycin HCl (Sigma 861987) were used as internal controls on each plate for Gram-negative and Gram-positive bacteria, respectively. […]

[6] = system: Staphylococcus aureus VRS 1, VRSA (VanA); experiment: Antibacterial MIC assay, Gram-positive panel; type: cell-based; conditions: Table S1 panel; n=4
From the text: (§18) Bis(dimethyl-η4)-((1Z,1'E,5Z,5'E)-(1,1'-bi(cyclooctadiene))diplatinum(II) (Pt14) Smiles: C1C=CCCC(=CC1)C1=CCCC=CCC1.C[Pt]C.C[Pt]C
as §9
(§19) Link to selected data that was repeated to approve the identity of the compounds: https://dx.doi.org/10.14272/PHIWIZAHOBWKFJ-HPCBIOCFSA-N.1
as §13, §14, §2, §15, §16, §17

[7] = system: Staphylococcus aureus ATCC 25923, MSSA; experiment: Antibacterial MIC assay, Gram-positive panel; type: cell-based; conditions: Table S1 panel; n=4
From the text: as §18, §9, §19, §13, §14, §2, §15, §16, §17

[8] = system: Klebsiella pneumoniae ATCC 700603 (ESBL SHV‐18)
Description: as §11, §12, §13, §14, §2, §15, §16, §17

[9] = system: Escherichia coli ATCC 25922; experiment: Antibacterial MIC assay; type: cell-based; conditions: CO‐ADD screening
Description: as §11, §12, §13, §14, §2, §15, §16, §17

[10] = system: Pseudomonas aeruginosa ATCC 27853; experiment: Antibacterial MIC assay; type: cell-based; conditions: CO‐ADD screening
Description: as §11, §12, §13, §14, §2, §15, §16, §17

[11] = system: Acinetobacter baumannii ATCC 19606; experiment: Antibacterial MIC assay; type: cell-based; conditions: CO‐ADD screening
Description: as §11, §12, §13, §14, §2, §15, §16, §17

human red blood cells = experiment: Haemolysis assay; type: cell-based; conditions: for Haemolysis HC10: concentration inducing 10 % haemolysis; for Haemolysis HC50: concentration inducing 50 % haemolysis
Description: As part of the CO‐ADD screening, all compounds that show any activity against a microbial strain are evaluated for their cytotoxicity against human embryonic kidney cells (HEK‐293) and for haemolysis against human red blood cells. None of the compounds tested for cytotoxicity (Pt1‐9 and Pd1) caused any significant cell death up to concentrations of 100 μM. […] We have also observed higher IC50 values for the methylated complexes Pt3 and Pt4 against HeLa cells in previous work.[16]
as §5, §6, §7
(§20) inhibitors as positive control.
(§21) Tamoxifen (Sigma T5648) was used
(§22) as internal control on each plate.
in a Neubauer haemocytometer.
incubated for 1 h at 37 °C, without shaking.
HC10 and HC50 (concentration at which 10%
for top, bottom and slope using Prism 8. […]

S. aureus NRS 17 GISA = experiment: MIC in the presence of human serum (serum reversal); type: cell-based, Staphylococcus aureus; conditions: 50% serum
From the text: as §1, §2, §3, §4, §5, §6, §7, §8

[12] = system: S. aureus ATCC 43300 MRSA; experiment: as above; type: cell-based, Staphylococcus aureus; conditions: 50% serum
From the text: as §1, §2, §3, §4, §5, §6, §7, §8

[13] = system: HEK-293 ATCC CRL-1573 human embryonic kidney cells; type: cell-based
Description: As part of the CO‐ADD screening, all compounds that show any activity against a microbial strain are evaluated for their cytotoxicity against human embryonic kidney cells (HEK‐293) and for haemolysis against human red blood cells. None of the compounds tested for cytotoxicity (Pt1‐9 and Pd1) caused any significant cell death up to concentrations of 100 μM. […] We have also observed higher IC50 values for the methylated complexes Pt3 and Pt4 against HeLa cells in previous work.[16] […]
as §20, §21, §22
in a Neubauer haemocytometer. […]

[14] = system: E. coli lpxC (non‐efficient lipid A production mutant); experiment: MIC against E. coli membrane mutants; type: cell-based, Escherichia coli
Description: as §2, §3, §4, §5, §6, §7, §8

[15] = system: Enterococcus faecalis ATCC 29212, control strain; experiment: Antibacterial MIC assay, Gram-positive panel; type: cell-based; conditions: Table S1 panel; n=4
Description: as §12, §13, §14, §2, §15, §16, §17

[16] = system: Bacillus subtilis ATCC 6051, type strain; experiment: Antibacterial MIC assay, Gram-positive panel; type: cell-based; conditions: Table S1 panel; n=2
Description: as §12, §13, §14, §2, §15, §16, §17

[17] = system: Enterococcus faecium ATCC 51559, MDR, VRE (VanA); experiment: Antibacterial MIC assay, Gram-positive panel; type: cell-based; conditions: Table S1 panel; n=2
Description: as §12, §13, §14, §2, §15, §16, §17

[18] = system: Staphylococcus epidermidis NRS 60, VISE; experiment: Antibacterial MIC assay, Gram-positive panel; type: cell-based; conditions: Table S1 panel; n=4
Description: as §12, §13, §14, §2, §15, §16, §17

[19] = system: Enterococcus faecium ATCC 35667, type strain; experiment: Antibacterial MIC assay, Gram-positive panel; type: cell-based; conditions: Table S1 panel; n=4
Description: as §12, §13, §14, §2, §15, §16, §17

[20] = system: Staphylococcus epidermidis ATCC 14990, type strain; experiment: Antibacterial MIC assay, Gram-positive panel; type: cell-based; conditions: Table S1 panel; n=4
Description: as §12, §13, §14, §2, §15, §16, §17

[21] = system: Staphylococcus aureus NRS 17, GISA; experiment: Antibacterial MIC assay, Gram-positive panel; type: cell-based; conditions: Table S1 panel; n=2
Description: as §12, §13, §14, §2, §15, §16, §17

[22] = system: Enterococcus faecium Clinical Isolate, VRE (VanA); experiment: Antibacterial MIC assay, Gram-positive panel; type: cell-based; conditions: Table S1 panel; n=4
Description: as §12, §13, §14, §2, §15, §16, §17

[23] = system: E. coli tolC (efflux pump deficient); experiment: MIC against E. coli membrane mutants; type: cell-based, Escherichia coli
Description: as §2, §3, §4, §5, §6, §7, §8

Compound	MIC in the presence of human serum [1]	MIC Ca [2]	MIC Cn [3]	MIC in the presence of human serum [4]	MIC Sa [5]	MIC Kp [8]	MIC Ec [9]	MIC Pa [10]	MIC Ab [11]	Haemolysis HC10 (human red blood cells)	Haemolysis HC50 (human red blood cells)	MIC in the presence of human serum (S. aureus NRS 17 GISA)	MIC in the presence of human serum [12]	CC50 [13]	MIC E. coli lpxC ([14]; Table S2)	MIC [17]	MIC [21]	other results
CC(C)C([O][Pt][Cl])/C1=C/CC/C=C\CC1 (centres unmarked) [Pt8]	> 200 µM	10 µM	1.25 µM	200 µM	>20 µM	>20 µM	>20 µM	>20 µM	>20 µM	>100 µM	>100 µM	> 200 µM	> 200 µM	> 100 µM	> 200 µM	50 µM	50 µM	MIC ([5]; Table S1 panel, n=2): 3.12 µM; MIC [6]: 12.5 µM; MIC [7]: 25 µM; MIC [15]: 100 µM; MIC [16]: 50 µM; MIC [18]: 25 µM; MIC [19]: 100 µM; MIC [20]: 6.25 µM; MIC [22]: 100 µM
CCC1=CCCC=CCC1.[CH3][Pt][C](F)(F)C(F)(F)C(F)(F)C(F)(F)C(F)(F)C(F)(F)C(F)(F)C(F)(F)F [Pt9]	> 200 µM	>20 µM	1.25 µM	> 200 µM	>20 µM	>20 µM	>20 µM	>20 µM	>20 µM	>100 µM	>100 µM	> 200 µM	> 200 µM	> 100 µM	> 200 µM	100 µM	100 µM	MIC E. coli TolC ([23]; Table S2): > 200 µM
Colistin [reference compound]																		MIC Kp ([8]; CO‐ADD screening, control antibiotic): 0.25 µg/mL; MIC Ec ([9]; control antibiotic): 0.125 µg/mL; MIC Pa ([10]; control antibiotic): 0.25 µg/mL; MIC Ab ([11]; control antibiotic): 0.25 µg/mL; MIC E. coli TolC ([23]; Table S2, colistin control): 0.03 µg/mL; MIC E. coli lpxC ([14]; Table S2, colistin control): 0.03 µg/mL
